Data on 5 compounds can be found in patent US10081615B2, “Sulfamate derivative compounds for use in treating or alleviating pain” (Bio-Pharm Solutions Co., Ltd., priority 2013, dated 2018).

In one test the test system is STZ-induced pain model. In words: Antiallodynic activity in the streptozotocin (STZ)-induced diabetic pain model (von Frey). It is filed as in vivo, Sprague-Dawley rats. The following applies: 0.5 h; for ED50: ip. The method, then: Male, Sprague-Dawley rats (200-220 g, Nara Bio, Korea) were habituated for 1 week before surgery and allowed free access to food and water throughout the experimentation. Room temperature and humidity were maintained at 24±2° C. and 50±10%, respectively.
The STZ-induced diabetic pain model was established with a modified method of Rakieten et al. (1963) and Bertrand Aubel et al. (2004). All animals were fasted for 4 to 6 hr prior to STZ injection. STZ (sigma, USA) was dissolved in 20 mM sodium citrate buffer, pH 5.5 (Sigma. USA) and intraperitoneally injected at 75 mg/kg, 4 ul/g by bodyweight into the rats. Sham controls were injected with same volume of 20 mM sodium citrate buffer, pH 5.5, and vehicle controls were identical to STZ model except for administration of vehicles without treatment. Rats were supplied with 10% sucrose water for 2 days to protect against sudden hypoglycemia, 3 days later, the induction of diabetes was checked by the measurement of tail vein blood glucose levels with a blood glucose meter. (LifeScan OneTouch Ultra, USA). […]
Tactile sensitivity (mechanical allodynia) was evaluated using von Frey monofilaments before and after treatment of the compound of Examples and the animals were included in the study only if the withdrawal threshold value was less than 4 g. […] The tactile sensitivity for the ipsilateral hind paw was measured using the up-and-down method (Dixon, 1980) with seven von Frey monofilaments (0.4, 1, 2, 4, 6, 8, and 15 g) in 3 trials. […] The 50% paw withdrawal threshold for each paw was calculated using the following formula: [Xth] log=[vFr] log+ky where [vFr] is the force of the last von Frey used, k=0.2249 which is the average interval (in log units) between the von Frey monofilaments, and y is a value that depends upon the pattern of withdrawal responses (Dixon, 1980). […]
The relative values compared to the sham (% control) were calculated and shown in Table 9, which show an antiallodynic effect of the compound of examples on STZ-induced pain model in rats.

The test system of test [1] is Vincristine-induced pain model. In words: Antiallodynic activity in the vincristine-induced pain model (von Frey). Type of test: in vivo, Sprague-Dawley rats. Conditions: rat, intraperitoneal, 0.5 h; for ED50: ip. On the procedure:
Male, Sprague-Dawley rats (300-320 g, Nara Bio, Korea) were habituated for 1 week before surgery and allowed free access to food and water throughout the experimentation. Room temperature and humidity were maintained at 24±2° C. and 50±10%, respectively.
The vincristine-induced pain model was established by the procedure of Natsuko et al. (2001) with minor modifications. Vincristine was intravenously infused continuously for 14 days using a mini-osmotic pump as follows: Vincristine sulfate solution (Hospira, Australia) was diluted with 0.9% saline to a final dose of 30 ug/kg. The pumps (Alzet Model 2002, USA) were filled with the vincristine solution and primed by incubation at 37° C. for 4 h before the infusion. Briefly, animals were put under gaseous anesthesia with isoflurane and NO with a 4:4 flow ratio. A catheter made from PE-60 tubing was inserted into an external jugular vein in the rat. Sham controls were prepared in the same manner, with the external jugular vein exposed, but not cut down. Preparation of the vehicle controls were identical to the group treated with compound, except for administration of vehicles without compound in the vehicle control group.
Tactile sensitivity (mechanical allodynia) was evaluated using von Frey monofilaments before and after treatment, and the animals were included in the study only if the withdrawal threshold value was less than 4 g. One week after surgery, vincristine-infused animals (n=6), sham-operated animals (n=12) and vehicle-operated (n=18) animals were tested for tactile sensitivity with von Frey monofilaments with 3 trials in each animal. All animals were placed in a stainless steel mesh chamber and habituated for 30 min in the test cage. The tactile sensitivity for the ipsilateral hind paw was measured using the up-and-down method (Dixon, 1980) with seven von Frey monofilaments (0.4, 1, 2, 4, 6, 8, and 15 g) in 3 trials. The tactile sensitivity test was followed by Dixon's method. The 50% paw withdrawal threshold for each paw was calculated using the following formula: [Xth] log=[vFr] log+ky where [vFr] is the force of the last von Frey used, k=0.2249 which is the average interval (in log units) between the von Frey monofilaments, and y is a value that depends upon the pattern of withdrawal responses (Dixon, 1980).
[…] The test was performed at the peak time of efficacy (0.5 hr) after compound administration.
The relative values compared to the sham (% control) were calculated and are shown in Table 11, which show an antiallodynic effect of the compound of examples in the vincristine-induced pain model in rats.

Each structure is given as a SMILES string. Read-outs that look alike come from different tables or passages of the source.

Regarding `CC1(C)Oc2ccccc2[C@@H](COS(N)(=O)=O)O1` [Example 2, ((S)-2,2-dimethyl-4H-benzo[d][1,3]dioxin-4-yl)methyl sulfamate], in the test with STZ-induced pain model (rat, intraperitoneal, read-out: STZ model: ED50), the ED50 worked out at 27.4 mg/kg. `CC1(C)Oc2ccccc2[C@H](COS([NH-])(=O)=O)O1.[Na+]` [Example 58, Sodium (R)-(((2,2-dimethyl-4H-benzo[d][1,3]dioxin-4-yl)methoxy)sulfonyl)amide Trihydrate] showed an ED50 in test [1] of 6.2 mg/kg. Consider `CC1(C)Oc2ccccc2C(COS([NH-])(=O)=O)O1.[Na+]` (stereo not shown) [Example 60, Sodium (((2,2-dimethyl-4H-benzo[d][1,3]dioxin-4-yl)methoxy)sulfonyl)amide Trihydrate], for which the ED50 came to 16.1 mg/kg in the test with STZ-induced pain model (Rattus norvegicus, read-out: STZ model: ED50 mg/kg) and 2.4 mg/kg in test [1]. Turning to `[NH-]S(=O)(=O)OC[C@H]1OC2(CCCC2)Oc2ccccc21.[Na+]` [Example 65, Sodium (S)-(((4H-spiro[benzo[d][1,3]dioxine-2,1′-cyclopentan]-4-yl)methoxy)sulfonyl)amide], in the test on STZ-induced pain model (rat, intraperitoneal, 100 mg/kg administered), the “STZ model: effect (%) compared to control” value is “(25.7%, 0.5 h)”. The same compound had an ED50 in test [1] of 8.2 mg/kg. For the compound `CC1(C)Oc2ccccc2[C@H](COS([NH-])(=O)=O)O1.[K+]` [Example 70, Potassium (R)-(((2,2-dimethyl-4H-benzo[d][1,3]dioxin-4-yl)methoxy)sulfonyl)amide], the “Vincristine model: effect (%) compared to control” value in test [1] (2.4 mg/kg administered) is “(36.2%, 0.5 h)”.
